Results as given in patent US9469642B2, “Purinone compounds as kinase inhibitors” (Pharmacyclics LLC, priority 2012, dated 2016).

Key:
Type in all cases: biochemical
BTK = target: T1, BTK (Homo sapiens, UniProt Q06187); experiment: Btk in vitro inhibitory activity (kinase assay by one of Methods A, B or C)
T1 construct: purified from insect cells as a full-length construct containing a N-terminal 6×-His tag; His6 (N); host or cells: insect cells (baculovirus Sf21)
Description: (§1) Btk kinase activity is determined using a time-resolved fluorescence resonance energy transfer (TR-FRET) methodology. Measurements are performed in a reaction volume of 50 μL using 96-well assay plates. Kinase enzyme, inhibitor, ATP (at the Km for the kinase), and 1 peptide substrate (Biotin-AVLESEEELYSSARQ-NH2) are incubated in a reaction buffer composed of 20 mM Tris, 50 mM NaCl, MgCl2 (5-25 mM depending on the kinase), MnCl2 (0-10 mM), 1 mM DTT, 0.1 mM EDTA, 0.01% bovine serum albumin, 0.005% Tween-20, and 10% DMSO at pH 7.4 for one hour. The reaction is quenched by the addition of 1.2 equivalents of EDTA (relative to divalent cation) in 25 μL of 1× Lance buffer (Perkin-Elmer). Streptavidin-APC (Perkin-Elmer) and Eu-labeled p-Tyr100 antibody (Perkin-Elmer) in 1× Lance buffer are added in a 25 μL volume to give final concentrations of 100 nM and 2.5 nM, respectively, and the mixture is allowed to incubate for one hour. The TR-FRET signal is measured on a multimode plate reader with an excitation wavelength (λEx) of 330 nm and detection wavelengths (λEm) of 615 and 665 nm. Activity is determined by the ratio of the fluorescence at 665 nm to that at 615 nm. For each compound, enzyme activity is measured at various concentrations of compound. Negative control reactions are performed in the absence of inhibitor in replicates of six, and two no-enzyme controls are used to determine baseline fluorescence levels. Inhibition constants, Ki(app), were obtained using the program BatchKi (Kuzmic et al. (2000), Anal. Biochem. 286:45-50). IC50s are obtained according to the equation: IC50=[…]+[E]total/2;
(§2) For all kinases, [ATP]=Km^ATP, [Btk]total=0.5 nM and [Lck]total=6 nM.
(§3) Kinase activity is measured in vitro using electrophoretic mobility shift assay. The kinase reactions are assembled in a total volume of 25 μL in 384 well plates. The reactions comprise: BTK enzyme (1 nM, N-terminal His6-tagged, recombinant, full-length, human BTK purified from baculovirus Sf21 insect cell system), inhibitor, ATP (16 μM, the apparent Km for the kinase), fluorescently labeled peptide substrate (1 μM, FAM-GEEPLYWSFPAKKK-NH2) in a reaction buffer composed of 100 mM HEPES, pH7.5, 5 mM MgCl2 1 mM DTT, 0.1% bovine serum albumin, 0.01% Triton X-100, and 1% DMSO. The reaction is incubated for one hour and is quenched by the addition of 45 μL of termination buffer (100 mM HEPES, pH7.5, 0.01% Triton X-100, 30 mM EDTA). The terminated reactions are analyzed using 12 channel LabChip® 3000 microfluidic detection instrument (Caliper Life Sciences). The enzymatic phosphorylation of the peptide results in a change in net charge, enabling electrophoretic separation of product from substrate peptide. As substrate and product peptides are separated, two peaks of fluorescence are observed. Change in the relative fluorescence intensity of the substrate and product peaks is the parameter measured, reflecting enzyme activity. In the presence of an inhibitor, the ratio between product and substrate is altered:the signal of the product decreases, while the signal of the substrate increases.
(§4) Activity in each sample is determined as the product to sum ratio (PSR):P/(S+P), where P is the peak height of the product peptide and S is the peak height of the substrate peptide. For each compound, enzyme activity is measured at various concentrations (12 concentrations of compound spaced by 3× dilution intervals). Negative control samples (0%-inhibition in the absence of inhibitor) and positive control samples (100%-inhibition, in the presence of 20 mM EDTA) are assembled in replicates of four and are used to calculate %-inhibition values for each inhibitor at each concentration. Percent inhibition (Pinh) is determined using following equation: […]

EGFR = EGFR (Homo sapiens, UniProt P00533); experiment: Kinase panel inhibition, EGFR (one of the methods of Example 76a, 76b, 76c)
Chain of EGFR (P00533 25-1210, species assumed): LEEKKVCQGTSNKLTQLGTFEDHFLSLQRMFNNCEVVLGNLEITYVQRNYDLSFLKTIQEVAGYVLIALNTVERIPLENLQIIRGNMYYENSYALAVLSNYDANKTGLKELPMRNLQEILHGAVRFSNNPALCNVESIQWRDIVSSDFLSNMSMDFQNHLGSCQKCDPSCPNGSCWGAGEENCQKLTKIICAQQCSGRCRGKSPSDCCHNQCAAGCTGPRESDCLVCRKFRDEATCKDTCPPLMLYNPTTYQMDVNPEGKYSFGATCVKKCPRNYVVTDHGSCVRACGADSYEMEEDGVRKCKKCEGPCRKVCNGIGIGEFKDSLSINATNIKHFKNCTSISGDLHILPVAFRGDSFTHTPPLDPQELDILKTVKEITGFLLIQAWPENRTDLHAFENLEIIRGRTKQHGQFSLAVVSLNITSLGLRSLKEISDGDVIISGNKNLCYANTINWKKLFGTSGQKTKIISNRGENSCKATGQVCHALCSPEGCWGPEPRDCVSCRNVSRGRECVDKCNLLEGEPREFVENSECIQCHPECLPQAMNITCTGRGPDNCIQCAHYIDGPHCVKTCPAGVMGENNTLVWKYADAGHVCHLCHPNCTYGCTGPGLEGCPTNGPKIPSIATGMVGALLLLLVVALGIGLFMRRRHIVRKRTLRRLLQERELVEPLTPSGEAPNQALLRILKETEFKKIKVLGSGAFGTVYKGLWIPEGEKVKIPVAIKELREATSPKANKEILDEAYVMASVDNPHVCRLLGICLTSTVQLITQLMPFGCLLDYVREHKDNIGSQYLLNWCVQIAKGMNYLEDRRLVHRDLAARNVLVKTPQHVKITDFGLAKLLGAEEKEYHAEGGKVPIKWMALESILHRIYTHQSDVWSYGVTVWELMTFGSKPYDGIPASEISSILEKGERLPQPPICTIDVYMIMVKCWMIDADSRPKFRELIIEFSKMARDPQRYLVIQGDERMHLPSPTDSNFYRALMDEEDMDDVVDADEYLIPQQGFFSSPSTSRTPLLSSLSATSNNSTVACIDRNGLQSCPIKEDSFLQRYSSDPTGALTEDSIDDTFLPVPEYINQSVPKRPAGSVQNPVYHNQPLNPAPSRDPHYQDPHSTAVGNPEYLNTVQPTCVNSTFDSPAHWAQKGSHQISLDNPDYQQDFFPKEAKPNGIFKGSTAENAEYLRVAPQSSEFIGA
Description: as §1, §2, §3, §4

LCK = LCK (Homo sapiens, UniProt P06239); experiment: Kinase panel inhibition, LCK (one of the methods of Example 76a, 76b, 76c)
Chain of LCK (P06239 whole entry, species assumed): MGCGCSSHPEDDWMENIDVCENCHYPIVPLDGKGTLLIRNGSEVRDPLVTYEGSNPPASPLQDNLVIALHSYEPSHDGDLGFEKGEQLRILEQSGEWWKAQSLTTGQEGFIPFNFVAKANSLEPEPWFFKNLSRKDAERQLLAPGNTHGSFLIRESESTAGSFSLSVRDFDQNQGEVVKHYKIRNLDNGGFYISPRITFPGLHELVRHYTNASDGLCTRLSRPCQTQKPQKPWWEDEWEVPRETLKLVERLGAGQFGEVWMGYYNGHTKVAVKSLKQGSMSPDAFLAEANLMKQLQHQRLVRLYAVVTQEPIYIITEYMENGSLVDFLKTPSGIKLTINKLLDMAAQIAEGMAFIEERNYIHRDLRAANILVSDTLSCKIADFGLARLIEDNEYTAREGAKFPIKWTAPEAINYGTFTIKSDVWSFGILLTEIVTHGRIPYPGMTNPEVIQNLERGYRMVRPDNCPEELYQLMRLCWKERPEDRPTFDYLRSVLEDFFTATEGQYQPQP
Description: as §1, §2, §3, §4

T1 sequence (Q06187 whole entry): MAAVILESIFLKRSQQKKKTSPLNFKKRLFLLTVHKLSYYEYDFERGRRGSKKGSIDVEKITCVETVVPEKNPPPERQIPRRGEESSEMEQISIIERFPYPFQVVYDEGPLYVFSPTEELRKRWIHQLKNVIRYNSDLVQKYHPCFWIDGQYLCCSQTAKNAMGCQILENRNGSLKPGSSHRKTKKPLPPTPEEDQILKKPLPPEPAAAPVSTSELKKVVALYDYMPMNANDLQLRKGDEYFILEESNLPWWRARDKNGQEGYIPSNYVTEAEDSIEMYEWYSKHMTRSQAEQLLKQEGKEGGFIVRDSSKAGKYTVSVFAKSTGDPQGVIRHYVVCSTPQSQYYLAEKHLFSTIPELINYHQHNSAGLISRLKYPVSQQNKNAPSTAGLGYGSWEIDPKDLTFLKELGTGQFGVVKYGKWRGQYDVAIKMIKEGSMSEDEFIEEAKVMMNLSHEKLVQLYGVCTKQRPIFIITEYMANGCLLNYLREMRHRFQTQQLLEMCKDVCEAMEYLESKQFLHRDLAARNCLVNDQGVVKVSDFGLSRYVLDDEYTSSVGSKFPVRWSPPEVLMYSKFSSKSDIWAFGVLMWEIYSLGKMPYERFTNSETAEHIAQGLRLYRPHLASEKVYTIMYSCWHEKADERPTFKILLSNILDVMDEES

IC50 (BTK)	IC50 (EGFR)	IC50 (LCK)	Compound
< 100 nM	100 to 1000 nM	1000 to 10000 nM	CN(C)C/C=C/C(=O)N(C)c1cccc(-n2c(=O)n(-c3ccc(Oc4ccccc4)cc3)c3c(N)ncnc32)c1 [Compound 33, (E)-N-(3-(6-amino-8-oxo-7-(4-phenoxyphenyl)-7H-purin-9(8H)-yl)phenyl)-4-(dimethylamino)-N-methylbut-2-enamide]
< 100 nM	100 to 1000 nM	1000 to 10000 nM	CN(C(=O)/C=C/CN(C)C1CC1)c1cccc(-n2c(=O)n(-c3ccc(Oc4ccccc4)cc3)c3c(N)ncnc32)c1 [Compound 34, (E)-N-(3-(6-amino-8-oxo-7-(4-phenoxyphenyl)-7H-purin-9(8H)-yl)phenyl)-4-(cyclopropyl(methyl)amino)-N-methylbut-2-enamide]
< 100 nM	1000 to 10000 nM	100 to 1000 nM	CN(C)C/C=C/C(=O)N(C)c1ccc(-n2c(=O)n(-c3ccc(Oc4ccccc4)cc3)c3c(N)ncnc32)cc1 [Compound 43, (E)-N-(4-(6-amino-8-oxo-7-(4-phenoxyphenyl)-7H-purin-9(8H)-yl)phenyl)-4-(dimethylamino)-N-methylbut-2-enamide]
< 100 nM	1000 to 10000 nM	100 to 1000 nM	CN(C(=O)/C=C/CN(C)C1CC1)c1ccc(-n2c(=O)n(-c3ccc(Oc4ccccc4)cc3)c3c(N)ncnc32)cc1 [Compound 44, (E)-N-(4-(6-amino-8-oxo-7-(4-phenoxyphenyl)-7H-purin-9(8H)-yl)phenyl)-4-(cyclopropyl(methyl)amino)-N-methylbut-2-enamide]
< 100 nM	1000 to 10000 nM	100 to 1000 nM	CN(C(=O)/C=C/CN(C)C1CCC1)c1ccc(-n2c(=O)n(-c3ccc(Oc4ccccc4)cc3)c3c(N)ncnc32)cc1 [Compound 45, (E)-N-(4-(6-amino-8-oxo-7-(4-phenoxyphenyl)-7H-purin-9(8H)-yl)phenyl)-4-(cyclobutyl(methyl)amino)-N-methylbut-2-enamide]
100 to 1000 nM	> 10000 nM	1000 to 10000 nM	CN(C)C/C=C/C(=O)N(C)c1ccc(-n2c(=O)n(-c3ccc(Cl)cc3)c3c(N)ncnc32)cc1 [Compound 48, (E)-N-(4-(6-amino-7-(4-chlorophenyl)-8-oxo-7H-purin-9(8H)-yl)phenyl)-4-(dimethylamino)-N-methylbut-2-enamide]
100 to 1000 nM	> 10000 nM	1000 to 10000 nM	CN(C(=O)/C=C/CN(C)C1CC1)c1ccc(-n2c(=O)n(-c3ccc(Cl)cc3)c3c(N)ncnc32)cc1 [Compound 49, (E)-N-(4-(6-amino-7-(4-chlorophenyl)-8-oxo-7H-purin-9(8H)-yl)phenyl)-4-(cyclopropyl(methyl)amino)-N-methylbut-2-enamide]
100 to 1000 nM	> 10000 nM	1000 to 10000 nM	CN(C(=O)/C=C/CN(C)C1CCC1)c1ccc(-n2c(=O)n(-c3ccc(Cl)cc3)c3c(N)ncnc32)cc1 [Compound 50, (E)-N-(4-(6-amino-7-(4-chlorophenyl)-8-oxo-7H-purin-9(8H)-yl)phenyl)-4-(cyclobutyl(methyl)amino)-N-methylbut-2-enamide]
< 100 nM	100 to 1000 nM	1000 to 10000 nM	C=CC(=O)N(C)c1ccc(-n2c(=O)n(-c3ccc(Cl)cc3)c3c(N)ncnc32)cc1 [Compound 51, N-(4-(6-amino-7-(4-chlorophenyl)-8-oxo-7H-purin-9(8H)-yl)phenyl)-N-methylacrylamide]
< 100 nM	1000 to 10000 nM	1000 to 10000 nM	COc1cc(-n2c(=O)n(-c3ccc(N(C)C(=O)/C=C/CN(C)C)cc3)c3ncnc(N)c32)ccc1C [Compound 54, (E)-N-(4-(6-amino-7-(3-methoxy-4-methylphenyl)-8-oxo-7H-purin-9(8H)-yl)phenyl)-4-(dimethylamino)-N-methylbut-2-enamide]
< 100 nM	1000 to 10000 nM	1000 to 10000 nM	C=CC(=O)N(C)c1ccc(-n2c(=O)n(-c3ccc(C)c(OC)c3)c3c(N)ncnc32)cc1 [Compound 55, N-(4-(6-amino-7-(3-methoxy-4-methylphenyl)-8-oxo-7H-purin-9(8H)-yl)phenyl)-N-methylacrylamide]
< 100 nM	1000 to 10000 nM	100 to 1000 nM	CN(C/C=C/C(=O)N1CC[C@@H](n2c(=O)n(-c3ccc(Oc4ccccc4)cc3)c3c(N)ncnc32)C1)C1CC1 [Compound 63, (R,E)-6-amino-9-(1-(4-(cyclopropyl(methyl)amino)but-2-enoyl)pyrrolidin-3-yl)-7-(4-phenoxyphenyl)-7H-purin-8(9H)-one]
< 100 nM	1000 to 10000 nM	100 to 1000 nM	CN(C/C=C/C(=O)N1CC[C@@H](n2c(=O)n(-c3ccc(Oc4ccccc4)cc3)c3c(N)ncnc32)C1)C1CCC1 [Compound 64, (R,E)-6-amino-9-(1-(4-(cyclobutyl(methyl)amino)but-2-enoyl)pyrrolidin-3-yl)-7-(4-phenoxyphenyl)-7H-purin-8(9H)-one]
100 to 1000 nM	> 10000 nM	1000 to 10000 nM	CN(C)C/C=C/C(=O)N1CC[C@@H](n2c(=O)n(-c3ccc(Cl)cc3)c3c(N)ncnc32)C1 [Compound 67, (R,E)-6-amino-7-(4-chlorophenyl)-9-(1-(4-(dimethylamino)but-2-enoyl)pyrrolidin-3-yl)-7H-purin-8(9H)-one]
< 100 nM	1000 to 10000 nM	100 to 1000 nM	CN(C)C/C=C/C(=O)N1CCC(Cn2c(=O)n(-c3ccc(Oc4ccccc4)cc3)c3c(N)ncnc32)CC1 [Compound 75, (E)-6-amino-9-((1-(4-(dimethylamino)but-2-enoyl)piperidin-4-yl)methyl)-7-(4-phenoxyphenyl)-7H-purin-8(9H)-one]
< 100 nM	> 10000 nM	1000 to 10000 nM	COc1cc(-n2c(=O)n([C@@H]3CCN(C(=O)/C=C/CN(C)C)C3)c3ncnc(N)c32)ccc1C [Compound 81, (R,E)-6-amino-9-(1-(4-(dimethylamino)but-2-enoyl)pyrrolidin-3-yl)-7-(3-methoxy-4-methylphenyl)-7H-purin-8(9H)-one]
100 to 1000 nM	> 10000 nM	> 10000 nM	COCCOc1ccc(-n2c(=O)n(-c3ccc(C)c(OC)c3)c3c(N)ncnc32)cc1N(C)C(=O)/C=C/CN(C)C [Compound 104, (E)-N-(5-(6-amino-7-(3-methoxy-4-methylphenyl)-8-oxo-7H-purin-9(8H)-yl)-2-(2-methoxyethoxy)phenyl)-4-(dimethylamino)-N-methylbut-2-enamide]
< 100 nM	1000 to 10000 nM	1000 to 10000 nM	COCCOc1ccc(-n2c(=O)n(-c3ccc(C)c(OC)c3)c3c(N)ncnc32)cc1NC(=O)/C=C/CN(C)C [Compound 112, (E)-N-(5-(6-amino-7-(3-methoxy-4-methylphenyl)-8-oxo-7H-purin-9(8H)-yl)-2-(2-methoxyethoxy)phenyl)-4-(dimethylamino)but-2-enamide]
< 100 nM	100 to 1000 nM	100 to 1000 nM	CN(C(=O)/C=C/CNC1CC1)c1cccc(-n2c(=O)n(-c3ccc(Oc4ccccc4)cc3)c3c(N)ncnc32)c1 [Compound 118, (E)-N-(3-(6-amino-8-oxo-7-(4-phenoxyphenyl)-7H-purin-9(8H)-yl)phenyl)-4-(cyclopropylamino)-N-methylbut-2-enamide]
